Test results from ChEMBL document CHEMBL3885881, “DrugMatrix”.

Organism: Rattus norvegicus
Assay: DrugMatrix - Regimen: Daily Repeat
Type: toxicity, organism-based, Sprague-Dawley
Design: regimen Daily Repeat, gender Male, age 6-8 weeks
Settings: in vivo, po, route oral GAVAGE, vehicle 100 % WATER; for BASOPHIL / EOSINOPHIL / ERYTHROCYTE COUNT / HEMATOCRIT / HEMOGLOBIN / LEUKOCYTE COUNT / LYMPHOCYTE / MEAN CORPUSCULAR HEMOGLOBIN / MEAN CORPUSCULAR HEMOGLOBIN CONCENTRATION / MEAN CORPUSCULAR VOLUME / MONOCYTE / NEUTROPHIL / PLATELET COUNT: tissue Blood; for ALANINE AMINOTRANSFERASE / ALBUMIN / ALKALINE PHOSPHATASE / ASPARTATE AMINOTRANSFERASE / BLOOD UREA NITROGEN / CHLORIDE / CHOLESTEROL / CREATINE PHOSPHOKINASE / CREATININE / GLUCOSE / PHOSPHORUS / POTASSIUM / SODIUM / TOTAL BILIRUBIN / TOTAL PROTEIN: tissue Plasma
[1] = 0 mg/kg, 72 h, dose level Control, time 3 day
[2] = 0 mg/kg, 120 h, dose level Control, time 5 day
[3] = 4 mg/kg, 72 h, dose level Low, time 3 day
[4] = 4 mg/kg, 120 h, dose level Low, time 5 day

SMILES: CCN(CC)CCOC(=O)C1(C2CCCCC2)CCCCC1 [DICYCLOMINE]
- BASOPHIL [1]: 0%
- EOSINOPHIL [1]: 0.5%
- ERYTHROCYTE COUNT [1]: 5.8 x10E6/uL
- HEMATOCRIT [1]: 35.07%
- HEMOGLOBIN [1]: 14.12 G/DL
- LEUKOCYTE COUNT [1]: 13.7 x10E3/uL
- LYMPHOCYTE [1]: 82.33%
- MEAN CORPUSCULAR HEMOGLOBIN [1]: 24.38 pg
- MEAN CORPUSCULAR HEMOGLOBIN CONCENTRATION [1]: 40.28 G/DL
- MEAN CORPUSCULAR VOLUME [1]: 60.52 fL
- MONOCYTE [1]: 2.67%
- NEUTROPHIL [1]: 14.5%
- PLATELET COUNT [1]: 911.5 x10E3/uL
- ALANINE AMINOTRANSFERASE [1]: 36.83 u/L
- ALBUMIN [1]: 3.75 G/DL
- ALKALINE PHOSPHATASE [1]: 399.83 u/L
- ASPARTATE AMINOTRANSFERASE [1]: 66 u/L
- BLOOD UREA NITROGEN [1]: 14.67 mg/dL
- CHLORIDE [1]: 101.67 MEQ/L
- CHOLESTEROL [1]: 66.33 mg/dL
- CREATINE PHOSPHOKINASE [1]: 139.5 u/L
- CREATININE [1]: 0.92 mg/dL
- GLUCOSE [1]: 175 mg/dL
- PHOSPHORUS [1]: 11.42 mg/dL
- POTASSIUM [1]: 7.03 MEQ/L
- SODIUM [1]: 148.5 MEQ/L
- TOTAL BILIRUBIN [1]: 1.13 mg/dL
- TOTAL PROTEIN [1]: 6.87 G/DL
- BASOPHIL [2]: 0%
- EOSINOPHIL [2]: 0.2%
- ERYTHROCYTE COUNT [2]: 6.02 x10E6/uL
- HEMATOCRIT [2]: 36.48%
- HEMOGLOBIN [2]: 14.38 G/DL
- LEUKOCYTE COUNT [2]: 12.34 x10E3/uL
- LYMPHOCYTE [2]: 83%
- MEAN CORPUSCULAR HEMOGLOBIN [2]: 23.92 pg
- MEAN CORPUSCULAR HEMOGLOBIN CONCENTRATION [2]: 39.44 G/DL
- MEAN CORPUSCULAR VOLUME [2]: 60.66 fL
- MONOCYTE [2]: 3%
- NEUTROPHIL [2]: 13.8%
- PLATELET COUNT [2]: 1190.6 x10E3/uL
- ALANINE AMINOTRANSFERASE [2]: 43 u/L
- ALBUMIN [2]: 3.73 G/DL
- ALKALINE PHOSPHATASE [2]: 393 u/L
- ASPARTATE AMINOTRANSFERASE [2]: 62.33 u/L
- BLOOD UREA NITROGEN [2]: 16.33 mg/dL
- CHLORIDE [2]: 101.67 MEQ/L
- CHOLESTEROL [2]: 65.5 mg/dL
- CREATINE PHOSPHOKINASE [2]: 130.67 u/L
- CREATININE [2]: 0.58 mg/dL
- GLUCOSE [2]: 180.67 mg/dL
- PHOSPHORUS [2]: 11.28 mg/dL
- POTASSIUM [2]: 7.05 MEQ/L
- SODIUM [2]: 148.17 MEQ/L
- TOTAL BILIRUBIN [2]: 0.72 mg/dL
- TOTAL PROTEIN [2]: 6.83 G/DL
- BASOPHIL [3]: 0%
- EOSINOPHIL [3]: 0.33%
- ERYTHROCYTE COUNT [3]: 6.01 x10E6/uL
- HEMATOCRIT [3]: 36.27%
- HEMOGLOBIN [3]: 14.33 G/DL
- LEUKOCYTE COUNT [3]: 12.73 x10E3/uL
- LYMPHOCYTE [3]: 85.67%
- MEAN CORPUSCULAR HEMOGLOBIN [3]: 23.9 pg
- MEAN CORPUSCULAR HEMOGLOBIN CONCENTRATION [3]: 39.57 G/DL
- MEAN CORPUSCULAR VOLUME [3]: 60.4 fL
- MONOCYTE [3]: 2%
- NEUTROPHIL [3]: 12%
- PLATELET COUNT [3]: 1302.67 x10E3/uL
- ALANINE AMINOTRANSFERASE [3]: 37.67 u/L
- ALBUMIN [3]: 3.63 G/DL
- ALKALINE PHOSPHATASE [3]: 354.67 u/L
- ASPARTATE AMINOTRANSFERASE [3]: 62.33 u/L
- BLOOD UREA NITROGEN [3]: 14 mg/dL
- CHLORIDE [3]: 102.67 MEQ/L
- CHOLESTEROL [3]: 65.33 mg/dL
- CREATINE PHOSPHOKINASE [3]: 133.33 u/L
- CREATININE [3]: 0.63 mg/dL
- GLUCOSE [3]: 179.67 mg/dL
- PHOSPHORUS [3]: 11.7 mg/dL
- POTASSIUM [3]: 6.7 MEQ/L
- SODIUM [3]: 150.67 MEQ/L
- TOTAL BILIRUBIN [3]: 0.53 mg/dL
- TOTAL PROTEIN [3]: 6.6 G/DL
- BASOPHIL [4]: 0%
- EOSINOPHIL [4]: 0.33%
- ERYTHROCYTE COUNT [4]: 6.36 x10E6/uL
- HEMATOCRIT [4]: 39.27%
- HEMOGLOBIN [4]: 15.3 G/DL
- LEUKOCYTE COUNT [4]: 12.77 x10E3/uL
- LYMPHOCYTE [4]: 87.33%
- MEAN CORPUSCULAR HEMOGLOBIN [4]: 24.03 pg
- MEAN CORPUSCULAR HEMOGLOBIN CONCENTRATION [4]: 38.97 G/DL
- MEAN CORPUSCULAR VOLUME [4]: 61.73 fL
- MONOCYTE [4]: 2.67%
- NEUTROPHIL [4]: 9.67%
- PLATELET COUNT [4]: 1082 x10E3/uL
- ALANINE AMINOTRANSFERASE [4]: 45 u/L
- ALBUMIN [4]: 3.6 G/DL
- ALKALINE PHOSPHATASE [4]: 424.67 u/L
- ASPARTATE AMINOTRANSFERASE [4]: 67.67 u/L
- BLOOD UREA NITROGEN [4]: 15.67 mg/dL
- CHLORIDE [4]: 104.33 MEQ/L
- CHOLESTEROL [4]: 65 mg/dL
- CREATINE PHOSPHOKINASE [4]: 107.33 u/L
- CREATININE [4]: 0.6 mg/dL
- GLUCOSE [4]: 195 mg/dL
- PHOSPHORUS [4]: 12.53 mg/dL
- POTASSIUM [4]: 6.67 MEQ/L
- SODIUM [4]: 151 MEQ/L
- TOTAL BILIRUBIN [4]: 0.63 mg/dL
- TOTAL PROTEIN [4]: 6.53 G/DL
